28 compounds from patent US9758538B2, “Pyrimidine derivatives” (PFIZER INC., priority 2015, dated 2017) can be followed below.

Sequence of truncated PI3Kα (p110α/iSH2 p85α), PI3KA_Act (P42336 whole entry, the tested form may be a part): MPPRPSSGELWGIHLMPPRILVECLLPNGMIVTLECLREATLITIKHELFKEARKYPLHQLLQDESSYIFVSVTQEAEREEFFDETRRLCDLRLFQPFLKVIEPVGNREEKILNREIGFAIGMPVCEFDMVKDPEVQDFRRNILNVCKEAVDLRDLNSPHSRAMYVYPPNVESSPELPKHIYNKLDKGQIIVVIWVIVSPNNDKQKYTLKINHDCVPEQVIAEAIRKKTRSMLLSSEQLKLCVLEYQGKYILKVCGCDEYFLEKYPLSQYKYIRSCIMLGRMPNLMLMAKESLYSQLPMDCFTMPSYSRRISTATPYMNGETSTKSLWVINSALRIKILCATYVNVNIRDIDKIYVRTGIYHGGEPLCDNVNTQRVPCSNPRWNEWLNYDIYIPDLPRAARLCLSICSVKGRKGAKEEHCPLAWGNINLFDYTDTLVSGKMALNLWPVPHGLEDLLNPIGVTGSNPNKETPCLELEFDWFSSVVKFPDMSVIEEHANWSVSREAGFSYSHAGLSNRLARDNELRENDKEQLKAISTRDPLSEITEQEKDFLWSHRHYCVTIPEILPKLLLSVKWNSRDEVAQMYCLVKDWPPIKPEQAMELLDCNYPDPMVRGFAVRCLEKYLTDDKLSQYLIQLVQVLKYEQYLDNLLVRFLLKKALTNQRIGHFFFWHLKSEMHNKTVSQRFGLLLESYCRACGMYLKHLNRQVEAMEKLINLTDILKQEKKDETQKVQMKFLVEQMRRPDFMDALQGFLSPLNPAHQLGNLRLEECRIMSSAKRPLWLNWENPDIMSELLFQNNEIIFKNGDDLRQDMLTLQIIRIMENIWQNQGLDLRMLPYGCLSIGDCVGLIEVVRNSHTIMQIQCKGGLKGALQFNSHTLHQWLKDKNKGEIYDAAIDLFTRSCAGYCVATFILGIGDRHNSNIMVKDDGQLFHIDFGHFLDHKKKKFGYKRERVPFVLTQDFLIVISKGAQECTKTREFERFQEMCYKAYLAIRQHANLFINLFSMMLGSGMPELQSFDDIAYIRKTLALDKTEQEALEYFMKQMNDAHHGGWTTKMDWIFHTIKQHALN

For this assay, the target named is truncated PI3Kα (p110α/iSH2 p85α), PI3KA_Act (Homo sapiens (Human), UniProt P42336). As to the kind of experiment: PI3Kα biochemical kinase assay, fluorescence polarization format (PI3KA_Act). The conditions noted are these: 0.5 nM p110α/iSH2 p85, 1 mM ATP, 30 μM PIP2, 15-min preincubation; Morrison equation fit; read-out: PI3KA_Act Ki. In outline:
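Enzyme: His-tagged p110α/p85α niSH2 complex from Sf21 baculovirus expression, IMAC-purified, tag cleaved, then SEC. Reactions ran 30 min at room temperature, stopped with 10 mM EDTA pH 8 (final), and were read by fluorescence polarization.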
On the technique in general: In fluorescence polarisation assays a small probe gives low polarisation when free and higher when bound to something large.
For orientation: Ki means the dissociation constant of the complex between target and ligand, obtained from inhibition or displacement. Take `Nc1ncc(-c2nc(N3CCOCC3)nc(N[C@]3(CO)CCCN(C(=O)C4(F)CC4)C3)c2F)cn1` (single isomer, unassigned) [Example 158]: the Ki came out at 0.627 nM.

Turning to `Nc1ncc(-c2cc(N[C@@]3(CO)CCN(C4CCNC4=O)C3)nc(N3CCOCC3)n2)cn1` (stereo partly drawn) [Example 80, (3S)-3-{[2′-amino-2-(morpholin-4-yl)-4,5′-bipyrimidin-6-yl]amino}-3-(hydroxymethyl)-1,3′-bipyrrolidin-2′-one], the Ki came to 1.94 nM. In the case of `CCOC(=O)N1CC[C@](CO)(Nc2nc(N3CCOCC3)nc(-c3cnc(N)nc3)c2F)C1` [Example 69, ethyl (3S)-3-{[2′-amino-5-fluoro-2-(morpholin-4-yl)-4,5′-bipyrimidin-6-yl]amino}-3-(hydroxymethyl)pyrrolidine-1-carboxylate], the inhibition constant (Ki) is 0.15 nM. `C[C@H]1COCCN1c1nc(N[C@@]2(CO)CCN(C(=O)OC(C)(C)C)C2)c(F)c(-c2cnc(N)nc2)n1` [Example 111, tert-butyl (3S)-3-({2′-amino-5-fluoro-2-[(3S)-3-methylmorpholin-4-yl]-4,5′-bipyrimidin-6-yl}amino)-3-(hydroxymethyl)pyrrolidine-1-carboxylate]: the Ki was less than 0.018 nM. On to `CC(C)[C@H](N)C(=O)N1CC[C@](CO)(Nc2cc(-c3cnc(N)nc3)nc(N3CCOCC3)n2)C1` [Example 51, (2S)-2-amino-1-[(3S)-3-{[2′-amino-2-(morpholin-4-yl)-4,5′-bipyrimidin-6-yl]amino}-3-(hydroxymethyl)pyrrolidin-1-yl]-3-methylbutan-1-one], for which the Ki was 0.619 nM. With `CCOC(=O)N1CC[C@](COC)(Nc2cc(-c3cnc(N)nc3)nc(N3CCOCC3)n2)C1` [Example 121, ethyl (3S)-3-{[2′-amino-2-(morpholin-4-yl)-4,5′-bipyrimidin-6-yl]amino}-3-(methoxymethyl)pyrrolidine-1-carboxylate], the Ki turned out to be 0.15 nM. On to `CCOC(=O)N1CC[C@](CO)(Nc2cc(-c3cnc(C)c(C#N)c3)nc(N3CCOCC3)n2)C1` [Example 128, ethyl (3S)-3-{[6-(5-cyano-6-methylpyridin-3-yl)-2-(morpholin-4-yl)pyrimidin-4-yl]amino}-3-(hydroxymethyl)pyrrolidine-1-carboxylate], for which the Ki was determined as 110 nM. In the case of `CC(C)(C)NC(=O)N1CC[C@](CO)(Nc2cc(-c3cnc(N)nc3)nc(N3CCOCC3)n2)C1` [Example 48, (3S)-3-{[2′-amino-2-(morpholin-4-yl)-4,5′-bipyrimidin-6-yl]amino}-N-tert-butyl-3-(hydroxymethyl)pyrrolidine-1-carboxamide] it was 0.714 nM. For `Cc1ncc(-c2cc(N[C@@]3(CO)CCN(C(=O)C4(F)CC4)C3)nc(N3CCOCC3)n2)cn1` [Example 136, (1-fluorocyclopropyl)[(3S)-3-(hydroxymethyl)-3-{[2′-methyl-2-(morpholin-4-yl)-4,5′-bipyrimidin-6-yl]amino}pyrrolidin-1-yl]methanone] the value was 0.739 nM; for `Nc1ncc(-c2cc(N[C@@]3(CO)CCN(C(=O)C4(F)CC4)C3)nc(N3CCOCC3)n2)cn1` [Example 56, [(3S)-3-{[2′-amino-2-(morpholin-4-yl)-4,5′-bipyrimidin-6-yl]amino}-3-(hydroxymethyl)pyrrolidin-1-yl](1-fluorocyclopropyl)methanone], less than 0.018 nM; for `CCC(=O)N1CCC[C@@](CO)(Nc2nc(N3CCOCC3)nc(-c3cnc(N)nc3)c2F)C1` [Example 147, 1-[(3R)-3-{[2′-amino-5-fluoro-2-(morpholin-4-yl)-4,5′-bipyrimidin-6-yl]amino}-3-(hydroxymethyl)piperidin-1-yl]propan-1-one], 1.9 nM. Take `Nc1ncc(-c2nc(N3CCOCC3)nc(N[C@]3(CO)CCCN(C(=O)OCC(F)F)C3)c2F)cn1` [Example 148, 2,2-difluoroethyl (3R)-3-{[2′-amino-5-fluoro-2-(morpholin-4-yl)-4,5′-bipyrimidin-6-yl]amino}-3-(hydroxymethyl)piperidine-1-carboxylate]: the Ki was 2.96 nM. On to `Nc1ncc(-c2cc(N[C@@]3(CO)CCN(C(=O)[C@@H]4CC4(F)F)C3)nc(N3CCOCC3)n2)cn1` [Example 46, [(3S)-3-{[2′-amino-2-(morpholin-4-yl)-4,5′-bipyrimidin-6-yl]amino}-3-(hydroxymethyl)pyrrolidin-1-yl][(1S)-2,2-difluorocyclopropyl]methanone], for which the Ki is less than 0.018 nM. Regarding `C[C@@]1(Nc2cc(-c3cnc(N)nc3)nc(N3CCOCC3)n2)CCN(S(C)(=O)=O)C1` [Example 12, N˜6˜-[(3R)-3-methyl-1-(methylsulfonyl)pyrrolidin-3-yl]-2-(morpholin-4-yl)-4,5′-bipyrimidine-2′,6-diamine], the Ki was found to be 1.29 nM.

As to `CCOC(=O)N1CC[C@](CO)(Nc2nc(-c3cnc(N)nc3)nc(N3CCOC[C@@H]3C)n2)C1` [Example 118, ethyl (3S)-3-({4-(2-aminopyrimidin-5-yl)-6-[(3S)-3-methylmorpholin-4-yl]-1,3,5-triazin-2-yl}amino)-3-(hydroxymethyl)pyrrolidine-1-carboxylate], the Ki was less than 0.018 nM. For `CC(C)(C)OC(=O)N1CC[C@](C)(Nc2cc(-c3cnc(N)nc3)nc(N3CCOCC3)n2)C1` [Example 40, tert-butyl (3S)-3-{[2′-amino-2-(morpholin-4-yl)-4,5′-bipyrimidin-6-yl]amino}-3-methylpyrrolidine-1-carboxylate] the value was 0.095 nM. As to `CC(C)[C@@H](N)C(=O)N1CC[C@](CO)(Nc2cc(-c3cnc(N)nc3)nc(N3CCOCC3)n2)C1` [Example 50, (2R)-2-amino-1-[(3S)-3-{[2′-amino-2-(morpholin-4-yl)-4,5′-bipyrimidin-6-yl]amino}-3-(hydroxymethyl)pyrrolidin-1-yl]-3-methylbutan-1-one], the Ki worked out at 0.137 nM. For the compound `Nc1ncc(-c2cc(N[C@@]3(CO)CCN(C4CCCNC4=O)C3)nc(N3CCOCC3)n2)cn1` (stereo partly drawn) [Example 88, 3-[(3S)-3-{[2′-amino-2-(morpholin-4-yl)-4,5′-bipyrimidin-6-yl]amino}-3-(hydroxymethyl)pyrrolidin-1-yl]piperidin-2-one], the Ki came to 0.682 nM. With `CC(C)(C)OC(=O)N1CC[C@](CO)(Nc2nc(N3CCOCC3)nc(-c3cnc(N)nc3)c2F)C1` [Example 38, tert-butyl (3S)-3-{[2′-amino-5-fluoro-2-(morpholin-4-yl)-4,5′-bipyrimidin-6-yl]amino}-3-(hydroxymethyl)pyrrolidine-1-carboxylate], the Ki was less than 0.018 nM. In the case of `Nc1ncc(-c2cc(N[C@@]3(CO)CCN(CC(F)F)C3)nc(N3CCOCC3)n2)cn1` [Example 67, [(3S)-3-{[2′-amino-2-(morpholin-4-yl)-4,5′-bipyrimidin-6-yl]amino}-1-(2,2-difluoroethyl)pyrrolidin-3-yl]methanol] it was 1.52 nM; in that of `COC[C@]1(Nc2cc(-c3cnc(N)nc3)nc(N3CCOCC3)n2)CCNC1` [Example 122, N˜6˜-[(3S)-3-(methoxymethyl)pyrrolidin-3-yl]-2-(morpholin-4-yl)-4,5′-bipyrimidine-2′,6-diamine], 21.5 nM. In the case of `CC(C)(C)OC(=O)N1CC[C@](CO)(Nc2nc(-c3cnc(N)nc3)nc(N3CCOCC3)n2)C1` [Example 39, tert-butyl (3S)-3-{[4-(2-aminopyrimidin-5-yl)-6-(morpholin-4-yl)-1,3,5-triazin-2-yl]amino}-3-(hydroxymethyl)pyrrolidine-1-carboxylate] it was 0.105 nM. Take `COC(=O)N1CC[C@](CO)(Nc2cc(-c3cnc(N)nc3C)nc(N3CCOCC3)n2)C1` [Example 59, methyl (3S)-3-{[2′-amino-4′-methyl-2-(morpholin-4-yl)-4,5′-bipyrimidin-6-yl]amino}-3-(hydroxymethyl)pyrrolidine-1-carboxylate]: the inhibition constant (Ki) stood at 0.18 nM. In the case of `CN1CCC(N2CC[C@](CO)(Nc3cc(-c4cnc(N)nc4)nc(N4CCOCC4)n3)C2)C1=O` (stereo partly drawn) [Example 76, (3S)-3-{[2′-amino-2-(morpholin-4-yl)-4,5′-bipyrimidin-6-yl]amino}-3-(hydroxymethyl)-1′-methyl-1,3′-bipyrrolidin-2′-one] it was 1.82 nM; in that of `Nc1ncc(-c2cc(N[C@@]3(CO)CCN(C(=O)[C@@H](O)c4ccccc4)C3)nc(N3CCOCC3)n2)cn1` [Example 60, (2S)-1-[(3S)-3-{[2′-amino-2-(morpholin-4-yl)-4,5′-bipyrimidin-6-yl]amino}-3-(hydroxymethyl)pyrrolidin-1-yl]-2-hydroxy-2-phenylethanone], 12.7 nM; in that of `COC(=O)N1CC[C@](CO)(Nc2cc(-c3cnc(N)nc3)nc(N3CCOCC3)n2)C1` [Example 34, methyl (3S)-3-{[2′-amino-2-(morpholin-4-yl)-4,5′-bipyrimidin-6-yl]amino}-3-(hydroxymethyl)pyrrolidine-1-carboxylate], 0.019 nM.

`C[C@H]1COCCN1c1nc(NC2(CO)CNC2)cc(-c2cnc(N)nc2)n1` [Example 54, [3-({2′-amino-2-[(3S)-3-methylmorpholin-4-yl]-4,5′-bipyrimidin-6-yl}amino)azetidin-3-yl]methanol]: the Ki was found to be 2.67 nM. Turning to `COC(=O)N1CC[C@](CO)(Nc2cc(-c3cnc(N)nc3)nc(N3CCOC[C@@H]3C)n2)C1` [Example 65, methyl (3S)-3-({2′-amino-2-[(3S)-3-methylmorpholin-4-yl]-4,5′-bipyrimidin-6-yl}amino)-3-(hydroxymethyl)pyrrolidine-1-carboxylate], the inhibition constant Ki is less than 0.018 nM.
